Entries after “also recorded” stand apart in the source; their conditions may differ.
What was measured:
HL-60 = test: blood-system cancer cell strain proliferation, Coulter Counter, HL60; type: cell-based; details: for HL60 cell number relative to glucose: seventh day, glucose = 100%; for HL60 proliferation inhibitory effect: 0.05-50 mM, 7 days, D-glucose control
Method: (2) Method: Total 6 kinds of cell strains, i.e., Myeloid (HL-60, THP-1, KG-1), T-cell (MT-2), and B-Cell (Daudi, KS-1), and 3 kinds of rare saccharides (i.e., D-psicose, D-altrose, and D-allose), were employed. The culture medium and the cells were prepared to be 1 mL in total and 1×10^5 in number, respectively. Then, the cell number at each of fourth day and seventh day was counted by using a Coulter Counter. Each rare saccharide was added at concentrations of 0.05, 0.5, 5 and 50 mM, while D-glucose was used as a control.
Culture Medium: FBS 10% added RPMI1460
Cultivation Conditions: 37° C., 5% CO2
Cultivation Vessel: FALCON, MULTIWELL, 12 wells
Number of Cultivation Days: 7 days
Saccharides Concentration: 0.05, 0.5, 5, 50 mM

[1] = tested on: ovary cancer cells (OVCAR3); test: proliferation of cultured cells, MTT method, OVCAR3; type: cell-based; details: for proliferation of OVCAR3 cells (cell number over time): saccharide 50 mM, 4 to 5 days, MTT
Method: Various kinds of rare saccharides were added at a concentration of 50 mM to culture media under the following conditions, and an influence of each rare saccharide upon the progress of proliferation of cancer cell strains was examined.
(1) Target cells to which the rare saccharides were added: Hepatic cancer cells (HepG2), uterine cancer cells (He1a), ovary cancer cells (OVCAR3), and skin keratinocyte (HaCaT) were selected as target cells to which the rare saccharides were added.
(2) Rare saccharides added: In addition to D-allose, glucose and D-altros as rare saccharides belonging to ketose were added, as other comparative saccharides, to the addition target cells. Also, D-fructose was employed as a control.
(3) Experiment method: A number 3,000-5,000 of addition target cells per type were inoculated into a multi-well plastic dish (hereinafter referred to as a “well”) having 96 wells, and were cultured for 4 to 5 days in a culture medium supplemented with 5 to 10% of Fetal Bovine Serum (FBS) depending on the cell types. D-Allose, D-glucose and D-altros were each added at concentration of 50 mM to the addition target cells per type. Similarly, D-fructose as a control was added at a concentration of 50 mM. To examine the influence upon the cell proliferation, the cell number was measured in units of 24 hours by using the MTT method described below.
(1) Preparation of reagents: A predetermined amount of MTT (tetrazolium salt) was dissolved in PBS(−) sterilized in an autoclave to obtain an MTT solution through filtering and sterilization. An acidic solution was prepared by adding 50 mL of N,N-dimethylformaldehyde and water to a predetermined amount of (20 g) of SDS, thereby obtaining a 100 mL of solution. About […] of 1N hydrochloric acid was added to the solution for adjustment of a pH-value to 4.7. The solution was preserved at room temperature and warmed up to 37° C. just before the use.
(2) Test method: The cells were treated with TEP to prepare a cell suspension liquid. This cell suspension liquid was pipetted in a predetermined cell-density (300 to 52000 cells/well) to each well (96-well plate: 0.1 mL of culture medium per well). The saccharide as a drug was added in a predetermined amount to each well, followed by cultivation for a whole day and night in a CO2 incubator. Then, 0.5 mg/mL of the MTT solution was added and the resulting culture was incubated for 4 hours in the incubator. Thereafter, the culture medium was completely removed. Then, in a room kept at 37° C., an acid solution was added in amount of 0.1 mL/well. The well plate was placed on a micro-plate mixer and shaken at 37° C. for 20 minutes to dissolve a colored substance (namely, to dissolve “formazan” in the acid solution). The absorbance of the liquid was measured at a wavelength of 570 to 600 nm by using a spectrophotometer. After dissolving the colored substance (formazan) in the acid solution, the absorbance can be measured directly by a plate reader.
(1) Experiment method: The ovary cancer cells (OVCAR3) were selected as target cells to which a rare saccharide was added, and D-allose as the saccharide was added at concentrations of 1 mM, 5 mM, 10 mM, 20 mM, 50 mM and 100 mM. The experimental conditions, such as the method of culturing the ovary cancer cells (OVCAR3) and the method of measuring the cell number (MTT method), were the same as those in Example 1.

[2] = tested on: island skin flap of Wistar rat; test: island skin-flap ischemia-reperfusion, survival area; type: in vivo
Source text: (1) Purpose: In the past basic researches, the inventors have tried to find out the mechanisms of skin-flap necrosis after ischemia and reperfusion of island skin flaps and necrosis of distal portions of random pattern skin flaps. As a result, the inventors have clarified that active oxygen is related to the necrosis of island skin flaps after ischemia and reperfusion and the necrosis of distal portions of random pattern skin flaps. […] In this Example 7, a first purpose is to obtain basic data regarding active-oxygen production inhibitory effects of rare saccharides, and a second purpose is to ensure clinical applications with the view of effectively preventing the necrosis of island skin flaps and random pattern skin flaps. A third purpose is to realize an application as a preservative liquid for long-period preservation of free skin flaps and amputated limbs. (2) Experiment method: 1) A Wistar rat (♂, 7 to 8 weeks, and 300 g or less) was put under anesthesia through abdominal administration of pentobarbital (Nembutal). 2) The abdomen was wholly shaved by a hair clipper. 3) An island skin flap of 3×5 cm was formed in the left abdomen with the left femoral artery and vein serving as blood vessel pedicels. 4) The elevated island skin flap was stitched to the original position by using a 4-0 nylon string. 5) Drugs (0.6 mL per drug) were each administrated in one shot through the right femoral artery and vein by instantaneous injection. The administered drugs were D-allose, glucose (0.2 mg/g), and physiological saline in various concentrations.
6) After waiting for 15 minutes from the administration of each drug, the blood vessel pedicels of both the left femoral artery and vein were clamped. Two vascular clips (60 g for the vein) were used for the clamping.
7) Complete shutoff of blood circulation was confirmed by using a laser Doppler rheometer.
8) After 8 hours, the rats were unclamped. Resumption of blood circulation was also confirmed by using a laser Doppler rheometer.
9) After 1 week, the life or death of the skin flap was determined.
10) An image of the skin flap was taken by a digital camera and input to a computer to calculate a survival area (%) by using area calculation software.
(3) Experiment groups: The following 6 groups were prepared with n=15 in each group.
1) D-allose: 150 mg (0.5 mg/g)
2) D-allose: 60 mg (0.2 mg/g)
3) D-allose: 30 mg (0.1 mg/g)
4) D-allose: 15 mg (0.05 mg/g)
5) D-glucose: 60 mg (0.2 mg/g)
6) physiological saline (control)
(4) Results (FIGS. 17 to 20): FIG. 18 showing all data of the survival areas (%), and FIG. 19 showing results of variance analysis (one-dimensional arrangement). […] In the multiple comparison assay, a significant difference was determined on condition of p<0.05.

SMILES	HL60 cell number relative to glucose (HL-60; 0.05 mM)	HL60 cell number relative to glucose (HL-60; 0.5 mM)	HL60 cell number relative to glucose (HL-60; 5 mM)	HL60 proliferation inhibitory effect (HL-60)	HL60 cell number relative to glucose (HL-60; 50 mM)	proliferation of OVCAR3 cells (cell number over time) [1]	skin flap survival area versus physiological saline group ([2]; D-glucose 60 mg (0.2 mg/g))	concentration at which the cancer-cell proliferation inhibitory effect was first found ([1]; OVCAR3, 1, 5, 10, 20, 50, 100 mM tested, 10% fetal bovine serum)	dead cells (microscope, trypan blue-exclusion assay) ([1]; OVCAR3 cells to which D-allose was applied)	HL60 proliferation inhibitory effect (HL-60; listed as allose)	skin flap survival area versus physiological saline group and glucose group ([2]; D-allose 15 mg (0.05 mg/g))	skin flap survival area versus physiological saline group ([2]; D-allose 30 mg (0.1 mg/g) or more (groups 150, 60, 30 mg), 8 hours clamping, 1 week, p<0.05)	skin flap survival area versus glucose group ([2]; D-allose 150 mg (0.5 mg/g) and 60 mg (0.2 mg/g))	dose required to develop the effect of extending the skin flap survival area ([2]; per rat, 30 mg = 0.1 mg/g)
O=C(CO)[C@H](O)[C@H](O)[C@H](O)CO [D-psicose]	84.7%	80.7%	84.2%	showed an inhibitory effect	93.6%	–	–	–	–	–	–	–	–	–
O=C[C@H](O)[C@@H](O)[C@H](O)[C@H](O)CO [D-glucose, reference compound]	–	–	–	–	–	acted so as to promote the proliferation of the cancer cells	did not show a statistical significant difference	–	–	–	–	–	–	–
O=C[C@H](O)[C@H](O)[C@H](O)[C@H](O)CO [D-allose]	62.6%	67.7%	41.5%	having the inhibitory effect	30.7%	strongly inhibited proliferation; also recorded: has a proliferation inhibitory effect	–	10 mM	dead cells hardly existed	showed an inhibitory effect	a statistical significant difference was not confirmed	a statistical significant difference was confirmed	a statistical significant difference was confirmed	≥ 30 mg

Reference: patent US8420606B2, “Method of utilizing physiological activity of rare saccharide and composition containing rare saccharide” (priority 2002, dated 2013)
